# Columns and labels:
# Aβ-GFP SH-SY5Y cells [1] = assay: High content analysis of Aβ-GFP fluorescence; type: cell-based, Human
# Method: Human neuroblastoma SH-SY5Y-derived Aβ-GFP [23] and ∆K280 tauRD-DsRed cells were kept in DMEM/nutrient mixture F12 (DMEM/F12) containing 10% FBS, 5 μg/ml blasticidin, and 100 μg/ml hygromycin (InvivoGen, San Diego, CA, USA). Doxycycline (Sigma-Aldrich) was applied to induce the expression of Aβ-GFP (5 μg/ml doxycycline) or ∆K280 tauRD-DsRed (2 μg/ml doxycycline).
# On day 1, Aβ-GFP or ∆K280 tauRD-DsRed SH-SY5Y cells were seeded into 96-well plates (2.5 × 10^4/well) and treated with retinoic acid (10 μM; Sigma-Aldrich) to prompt neuronal differentiation. […] Image Acquisition and Analysis Software (MetaXpress) (Molecular Devices, Sunnyvale, CA, USA) was used to analyse the images. CellROX Orange (5 μM; Molecular Probes, Eugene, OR, USA) (for Aβ-GFP cells) or dichloro-dihydro-fluorescein diacetate (DCFH-DA, 10 μM; Invitrogen) (for ∆K280 tauRD-DsRed cells) was added to the cells and incubated at 37°C for 30 min.
# Aβ-GFP SH-SY5Y cells [2] = assay: ROS assay (CellROX Orange) in Aβ-GFP cells; type: cell-based, Human; conditions: tested 1.2–5 μM
# Method: On day 1, Aβ-GFP or ∆K280 tauRD-DsRed SH-SY5Y cells were seeded into 96-well plates (2.5 × 10^4/well) and treated with retinoic acid (10 μM; Sigma-Aldrich) to prompt neuronal differentiation. […] On day 8, cells were stained with Hoechst 33342 (0.1 μg/ml; Sigma-Aldrich) for 30 min, and cell images were automatically captured at excitation/emission wavelengths of 482/[…] (GFP fluorescence) or 543/593 nm (DsRed fluorescence) using a high content analysis (HCA) system (Micro Confocal High-Content Imaging System). Image Acquisition and Analysis Software (MetaXpress) (Molecular Devices, Sunnyvale, CA, USA) was used to analyse the images. CellROX Orange (5 μM; Molecular Probes, Eugene, OR, USA) (for Aβ-GFP cells) or dichloro-dihydro-fluorescein diacetate (DCFH-DA, 10 μM; Invitrogen) (for ∆K280 tauRD-DsRed cells) was added to the cells and incubated at 37°C for 30 min. The HCA system was used to measure intracellular ROS at 531/593 nm (CellROX Orange fluorescence) or 482/536 nm (DCFH-DA fluorescence) of excitation/emission wavelengths.
# Aβ-GFP SH-SY5Y cells [3] = assay: Real-time PCR of Aβ-GFP RNA; type: cell-based, Human; conditions: 5 μM
# Method: To measure the Aβ-GFP/tauRD-DsRed RNA expression on day 8, total RNA was extracted from collected cells and reverse-transcribed to cDNA (SuperScript III reverse transcriptase; Invitrogen, Waltham, MA, USA). Real-time quantitative PCR was performed using 100 ng of cDNA and the gene-specific TaqMan fluorogenic probe PN4331348 (EGFP) or customized Assays-by-Design probe for DsRed and 4326321E (HPRT1) (StepOnePlus Real-time PCR system, Applied Biosystems, Foster City, CA, USA). The RNA expression level was calculated using the formula 2^ΔCt, ΔCT = CT (control) − CT (target), in which CT indicates the cycle threshold.
# caspase 1 = assay: Caspase 1 activity in Aβ-GFP cells; type: cell-based, Human; conditions: 5 μM, vs untreated cells
# Method: (§1) Aβ-GFP or ∆K280 tauRD-DsRed SH-SY5Y cells were seeded into 6-well plates (5 × 10^5/well) and treated with retinoic acid, coumarin-chalcone derivatives, and doxycycline as previously described. On day 8, cells were collected and lysates were prepared with six freeze/thaw cycles. The supernatant was collected by centrifugation, followed by measurement of the caspase 1 activity in 50 μg aliquots of cell extract using the ICE fluorometric assay kit (BioVision, Milpitas, CA, USA). Following incubation of the mixture at 37°C for 2 h, fluorescence was measured with excitation/emission wavelengths at 400/505 nm (FLx800 fluorescence microplate reader). In addition, the collected cells were lysed by sonication. Acetylcholinesterase (AChE) activity in the supernatant was determined in 10 μg aliquots of cell extracts using the AChE activity assay kit (Sigma-Aldrich) according to the manufacture's protocol. Finally, the absorbance at 412 nm was measured using a Multiskan GO spectrophotometer (Thermo Fisher Scientific).
# [4] = tested on: Acetylcholinesterase (AChE); assay: AChE activity in Aβ-GFP cells; type: cell-based; conditions: 5 μM, vs untreated cells
# Method: as §1
# Aβ-GFP SH-SY5Y cells [5] = assay: High content analysis of neurite outgrowth in Aβ-GFP cells; type: cell-based, Human; conditions: 5 μM
# Method: On day 1, Aβ-GFP or ∆K280 tauRD-DsRed SH-SY5Y cells were plated into 24-well plates (6 × 10^4/well) followed by addition of retinoic acid. On day 2, cells were treated with coumarin-chalcone derivatives (5 or 10 μM) and with doxycycline (5 or 2 μg/ml) to induce the expression of Aβ-GFP or ∆K280 tauRD-DsRed. On day 8, 4% paraformaldehyde, 0.1% Triton X-100, and 3% BSA were used to fix, permeabilize, and block cells, respectively. Subsequently, the cells were stained with TUBB3 (neuronal class III β-tubulin) primary antibody (1 : 1000; Covance, Princeton, NJ, USA) at 4°C overnight. Goat anti-rabbit Alexa Fluor 555 secondary antibody (1 : 1000; Thermo Fisher Scientific) was then added, followed by a 3 h incubation at room temperature. Following staining nuclei with 4′,-6-diamidino-2-phenylindole (DAPI) (0.1 μg/ml; Sigma-Aldrich), the neurons were imaged by using the HCA system and analysed by using the Neurite Outgrowth Application Module (MetaXpress; Molecular Devices).
# (§2) To monitor the cAMP-mediated signal transduction pathway, CRE-GFP 293 cells in 6-well plates (1 × 10^6/well) were pretreated with kinase inhibitor H-89 (LC Laboratories, Woburn, MA, USA), KN-62 (Cayman Chemical, Ann Arbor, MI, USA), U0126 (LC Laboratories), or wortmannin (LC Laboratories) (10 μM) for 4 h before forskolin or LM-021 (10 μM) addition for 5 h. GFP fluorescence/protein and total/phosphorylated PKA, CaMKII, ERK, PI3K, and CREB levels were examined. In addition, Aβ-GFP or ∆K280 tauRD-DsRed SH-SY5Y cells were treated with retinoic acid (10 μM) on day 1, followed by the addition of LM-021 (5 or 10 μM) and doxycycline (5 or 2 μg/ml) on day 2, as described. Kinase inhibitors (10 μM) were added on day 6. On day 8, the cells were collected for protein expression analysis of BDNF, BCL2 (BCL2 apoptosis regulator), and BAX (BCL2 associated X, apoptosis regulator), and total/phosphorylated PKA, CaMKII, ERK, PI3K, and CREB. Also, cells were stained with DAPI and assessed for neurite outgrowth as described above.
# CRE-GFP 293 cells = assay: CRE-GFP 293 reporter cell assay (flow cytometry); type: cell-based, Human; conditions: 10 μM, 5 h, in the presence of Ca2+ ionophore (2 μM)
# From the text: Using the pCRE-MetLuc2-Reporter plasmid (Clontech, Mountain View, CA, USA) as a template, the DNA fragment containing the cAMP response element (CRE) motifs and TATA-like promoter (PTAL) flanked by MluI and AgeI restriction sites was amplified by PCR using sense ([…], MluI site underlined) and antisense ([…], AgeI site underlined) primers. The amplified CRE-PTAL promoter fragment was cloned into pGEM-T Easy (Promega, Madison, WI, USA) and sequenced. The CRE-PTAL-containing MluI/AgeI fragment and GFP-containing AgeI/NotI fragment (from pEGFP-N1; Clontech) were subcloned into MluI- and NotI-digested pcDNA5/FRT/TO (Novagen, Madison, WI, USA). The resulting construct with CRE-PTAL-driving GFP was used to establish 293 GFP reporter cells by targeting insertion into Flp-In-293 cells according to the supplier's instructions (Invitrogen). The cells were grown in a medium containing 5 μg/ml blasticidin and 100 μg/ml hygromycin.
# On day 1, CRE-GFP 293 cells were seeded into 48-well plates (5 × 10^4/well). After 24 h, cells were treated with Ca^2+ ionophore (2 μM) (Sigma-Aldrich) for 0–24 h. Cell viability was measured using 3,(4,5-dimethylthiazol-2-yl)-2,5-diphenyltetrazolium bromide (MTT) assay (Sigma-Aldrich). The absorbance of the insoluble purple formazan dye was quantified at 570 nm on a μQuant microplate spectrophotometer (Bio-Tek). In addition, the cells were treated with the Ca^2+ ionophore A23187 (0.5–10 μM) (Sigma-Aldrich) for 5 h, followed by analysis of GFP fluorescence by flow cytometry (Becton–Dickinson, Franklin Lakes, NJ, USA) with excitation/emission wavelengths at 488/507 nm. To monitor CREB activation, cells were treated with forskolin or coumarin-chalcone derivatives (5–10 μM) in the presence or absence of Ca^2+ ionophore (2 μM) for 5 h, and GFP fluorescence was analysed.
# as §2
smiles,measurement,setting,value
"COc1cc(/C=C/C(=O)CC(=O)/C=C/c2ccc(O)c(OC)c2)ccc1O [Curcumin, reference compound]",EC50,"Aβ-GFP SH-SY5Y cells [1]; Homo sapiens, SH-SY5Y, read-out: EC50 in Aβ aggregation inhibition (GFP fluorescence)",6.1 µM
same,Concentration significantly augmenting green fluorescence intensity (Aβ-GFP),"Aβ-GFP SH-SY5Y cells [1]; tested 1.2–5 μM, day 8",2.5 to 5 µM
same,Concentration effectively decreasing ROS levels caused by Aβ overexpression,Aβ-GFP SH-SY5Y cells [2],2.5 to 5 µM
same,Aβ-GFP RNA levels,Aβ-GFP SH-SY5Y cells [3],did not significantly modify
same,Caspase 1 activity,caspase 1,reduced
same,AChE activity,[4],reduced
same,"Neurite length, processes, and branches",Aβ-GFP SH-SY5Y cells [5],successfully ameliorated
"C=C[C@@]1(C)CC(=O)[C@]2(O)[C@@]3(C)[C@@H](O)CCC(C)(C)[C@@H]3[C@H](O)[C@H](OC(C)=O)[C@@]2(C)O1 [Forskolin, forskolin]",CRE-motif-driven GFP expression,CRE-GFP 293 cells,significantly increased
same,CRE-motif-driven GFP expression,CRE-GFP 293 cells; listed as forskolin,significantly activated

# Reference: PMC8605905 (Oxidative Medicine and Cellular Longevity, 2021)
